# Data reported in ChEMBL document CHEMBL4342427, “A new chemotype with promise against Trypanosoma cruzi” (Bioorg Med Chem Lett, 2020).
# Activity calls are given as the source filed them. The calls are words filed in the database; no cut-off is given here.
# Assays:
# Trypanosoma cruzi [1] = assay: Antitrypanosomal activity against Trypanosoma cruzi Tulahuen C4 trypomastigotes infected in rat L6 cells measured after 96 hrs by inverted microscopy analysis; type: functional, organism-based; details: Tulahuen C4, L6, 96 h
# [2] = target: T1, Sterol 14-alpha demethylase (Trypanosoma cruzi (strain CL Brener), UniProt Q7Z1V1); assay: Inhibition of Trypanosoma cruzi Tulahuen C4 CYP51 expressed in Escherichia coli HMS174 using [3H]-sterol as substrate in presence of NADPH by reversed phase HPLC analysis
# [3] = target: Sterol 14-alpha demethylase (Trypanosoma cruzi (strain CL Brener)) (UniProt Q7Z1V1); assay: (§1) Binding affinity to full length Trypanosoma cruzi Tulahuen C4 C-terminal His-tagged CYP51 expressed in Escherichia coli HMS174 (DE3) assessed as induction of shift in Soret band by spectrophotometry
# [4] = Ratio of IC50 for antiprotozoal activity against Plasmodium falciparum NF54 assessed as reduction in [3H]hypoxanthine incorporation preincubated for 48 hrs followed by [3H]hypoxanthine addition and measured after 24 hrs by liquid scintillation counting method to IC50 for antitrypanosomal activity against Trypanosoma cruzi Tulahuen C4 trypomastigotes infected in rat L6 cells measured after 96 hrs …; type: functional
# [5] = tested on: Trypanosoma brucei rhodesiense; assay: Antiprotozoal activity against Trypanosoma brucei rhodesiense STIB900 […] assessed as growth inhibition after 72 hrs by Alamar Blue dye-based fluorometric analysis; type: functional, organism-based; details: STIB900, 72 h
# Toxoplasma gondii = assay: Antiparasitic activity against Toxoplasma gondii RH transfected with fluorescent transgene dTom; type: functional, organism-based
# [6] = n-octanol/aqueous buffer distribution coefficient, log D of compound at pH 7.4 by HPLC analysis; type: physicochemical
# [7] = Kinetic solubility in 0.01M HCl at pH 2 by nephelometry; details: read-out: Kinetic_solubility
# [8] = Intrinsic clearance in human liver microsomes assessed per mg protein measured up to 60 mins in presence of NADPH; type: ADME, Microsome; details: for microsomal CLint: liver microsomes
# [9] = Intrinsic clearance in mouse liver microsomes assessed per mg protein measured up to 60 mins in presence of NADPH; type: ADME, Microsome; details: 1 h
# U2OS = assay: Cytotoxicity against human U2OS cells assessed as cell growth inhibition; type: cell-based
# Plasmodium falciparum = assay: Antiprotozoal activity against Plasmodium falciparum NF54 assessed as reduction in [3H]hypoxanthine incorporation preincubated for 48 hrs followed by [3H]hypoxanthine addition and measured after 24 hrs by liquid scintillation counting method; type: functional, organism-based
# [10] = Protein binding in human plasma by HPLC analysis; type: ADME, cell-free
# [11] = Kinetic solubility in phosphate buffer at pH 6.5 by nephelometry; details: read-out: Kinetic_solubility
# HEK-293T = assay: Cytotoxicity against human HEK293T cells assessed as cell growth inhibition; type: cell-based
# [12] = Ratio of IC50 for antiprotozoal activity against Trypanosoma brucei rhodesiense STIB900 […] assessed as growth inhibition after 72 hrs by Alamar Blue dye-based fluorometric analysis to IC50 for antitrypanosomal activity against Trypanosoma cruzi Tulahuen C4 trypomastigotes infected in rat L6 cells measured after 96 hrs by inverted microscopy analysis; type: functional
# [13] = Cytotoxicity against human HC04 cells assessed as cell growth inhibition; type: cell-based
# HFF = assay: Cytotoxicity against human HFF cells assessed as cell growth inhibition; type: cell-based
# Leishmania donovani = assay: Antileishmanial activity against Leishmania donovani MHOM/ET/67/L82 amastigotes assessed as growth inhibition after 72 hrs by plate reader based Alamar blue assay; type: functional, organism-based; details: MHOM/ET/67/L82, 72 h
# Trypanosoma cruzi [14] = assay: Antitrypanosomal activity against Trypanosoma cruzi Tulahuen 20A trypomastigote expressing GFP infected in BALB/c mouse cardiomyocytes assessed as reduction in parasitemia measured after 72 hrs by fluorescence assay; type: functional, organism-based
# [15] = target: T1, Sterol 14-alpha demethylase; assay: as §1
# T1 sequence (Q7Z1V1 whole entry): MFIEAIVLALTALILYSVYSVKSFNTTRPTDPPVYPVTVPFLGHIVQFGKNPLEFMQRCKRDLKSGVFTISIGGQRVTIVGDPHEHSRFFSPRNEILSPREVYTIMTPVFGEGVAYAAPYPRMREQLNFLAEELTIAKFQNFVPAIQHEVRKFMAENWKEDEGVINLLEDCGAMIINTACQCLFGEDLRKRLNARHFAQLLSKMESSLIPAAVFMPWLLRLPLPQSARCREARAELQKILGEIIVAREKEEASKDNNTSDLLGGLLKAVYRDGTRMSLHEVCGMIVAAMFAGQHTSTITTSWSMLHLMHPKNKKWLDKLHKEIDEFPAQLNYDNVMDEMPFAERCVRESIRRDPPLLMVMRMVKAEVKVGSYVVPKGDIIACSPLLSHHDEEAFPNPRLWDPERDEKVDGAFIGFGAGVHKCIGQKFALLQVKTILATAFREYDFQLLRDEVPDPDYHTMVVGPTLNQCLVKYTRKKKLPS
# Sequence of Sterol 14-alpha demethylase (Trypanosoma cruzi (strain CL Brener)) (Q7Z1V1 whole entry, looked up): as the sequence (Q7Z1V1 whole entry) above
structure (smiles),measurement,setting,value
CN1CCN(c2ccc(S(=O)(=O)NCc3ccc(C(=O)Nc4ccncc4)cc3)cc2)CC1,IC50,Trypanosoma cruzi [1],28 µM
CN1CCN(c2ccc(C(=O)NCc3ccc(C(=O)Nc4cccnc4)cc3)cc2)CC1,IC50,Trypanosoma cruzi [1],120 µM
Cc1ncccc1NC(=O)c1ccc(CNS(=O)(=O)c2ccc(N3CCN(C)CC3)cc2)cc1,IC50,[2],487 µM
same,Activity,[3],inactive
same,IC50,Trypanosoma cruzi [1],65 µM
O=C(Nc1cccnc1)c1ccc(CNS(=O)(=O)c2ccc(N3CCC(O)CC3)cc2)cc1,IC50,Trypanosoma cruzi [1],120 µM
CN1CCN(c2ccc(S(=O)(=O)NC[C@H]3CC[C@H](C(=O)Nc4cccnc4)CC3)cc2)CC1,IC50,Trypanosoma cruzi [1],120 µM
C[C@@H]1CN(c2ccc(S(=O)(=O)NCc3ccc(C(=O)Nc4cccnc4)cc3)cc2)C[C@H](C)N1,IC50,Trypanosoma cruzi [1],130 µM
O=C(Nc1cccnc1)c1ccc(CNS(=O)(=O)c2ccc(N3CCOCC3)cc2)cc1,Ratio IC50,[4],10
same,IC50,[5],25 µM
same,IC50,Toxoplasma gondii,> 100 µM
same,logD,[6],2.6
same,solubility kinetic,[7],50 to 100 µg/mL
same,microsomal CLint,[8],69 µL/min/mg
same,CLint,[9],200 µL/min/mg
same,IC50,U2OS,0.16 µM
same,IC50,Plasmodium falciparum,21 µM
same,PPB,[10],76.2%
same,solubility kinetic,[11],12.5 to 25 µg/mL
same,IC50,HEK-293T,0.95 µM
same,Ratio IC50,[12],10
same,IC50,[13],> 50 µM
same,IC50,HFF,2 µM
same,IC50,Trypanosoma cruzi [1],2.1 µM
same,IC50,Leishmania donovani,180 µM
O=C(Nc1cccnc1)c1ccc(CNS(=O)(=O)c2ccc(N3CCNCC3)cc2)cc1,IC50,Trypanosoma cruzi [1],69 µM
O=C(Nc1cccnc1)c1ccc(CNS(=O)(=O)c2ccc(N3CCC3)cc2)cc1,IC50,Trypanosoma cruzi [1],8.3 µM
CC[C@@H]([C@H](C)O)n1ncn(-c2ccc(N3CCN(c4ccc(OC[C@@H]5CO[C@@](Cn6cncn6)(c6ccc(F)cc6F)C5)cc4)CC3)cc2)c1=O [POSACONAZOLE],IC50,Trypanosoma cruzi [14],0.005 µM
Cc1ccc(NC(=O)c2ccc(CNS(=O)(=O)c3ccc(N4CCN(C)CC4)cc3)cc2)c(C)n1,IC50,Trypanosoma cruzi [1],110 µM
CN1CCN(c2ccc(S(=O)(=O)NCc3ccc(C(=O)Nc4ccc(C#N)nc4)cc3)cc2)CC1,IC50,Trypanosoma cruzi [1],100 µM
O=C(Nc1cccnc1)c1ccc(CNS(=O)(=O)c2ccc(N3CCCCC3)cc2)cc1,IC50,Trypanosoma cruzi [1],110 µM
CN1CCN(c2ccc(S(=O)(=O)NCc3ccc(C(=O)Nc4cnccn4)cc3)cc2)CC1,IC50,Trypanosoma cruzi [1],17 µM
CCOC(=O)N1CCN(c2ccc(S(=O)(=O)NCc3ccc(C(=O)Nc4cccnc4)cc3)cc2)CC1,IC50,Trypanosoma cruzi [1],46 µM
CN1CCN(c2ccc(S(=O)(=O)NCc3ccc(C(=O)Nc4cccnc4)cc3)cc2)CC1,IC50,[5],32 µM
same,IC50,Toxoplasma gondii,> 100 µM
same,logD,[6],2.8
same,IC50,[2],49 µM
same,microsomal CLint,[8],45 µL/min/mg
same,CLint,[9],112 µL/min/mg
same,IC50,U2OS,0.15 µM
same,IC50,Plasmodium falciparum,10 µM
same,PPB,[10],85.2%
same,solubility kinetic,[11],25 to 50 µg/mL
same,IC50,HEK-293T,0.36 µM
same,Kd,[15],1.32 µM
same,IC50,[13],> 50 µM
same,IC50,HFF,> 50 µM
same,IC50,Trypanosoma cruzi [1],0.007 µM
same,IC50,Leishmania donovani,> 200 µM
Cc1ccc(NC(=O)c2ccc(CNS(=O)(=O)c3ccc(N4CCN(C)CC4)cc3)cc2)cn1,IC50,Trypanosoma cruzi [1],88 µM
CN1CCN(c2ccc(S(=O)(=O)NCc3ccc(C(=O)Nc4cncnc4)cc3)cc2)CC1,IC50,Trypanosoma cruzi [1],96 µM
CN1CCN(c2ccc(S(=O)(=O)NCc3ccc(-c4nc(-c5cccnc5)no4)cc3)cc2)CC1,IC50,[5],3.4 µM
same,IC50,Toxoplasma gondii,21 µM
same,logD,[6],4.1
same,CLint,"[8]; microsomes, 1 h",535 µL/min/mg
same,CLint,[9],677 µL/min/mg
same,IC50,U2OS,28 µM
same,IC50,Plasmodium falciparum,5.8 µM
same,solubility kinetic,[11],25 to 50 µg/mL
same,IC50,HEK-293T,42 µM
same,IC50,[13],> 50 µM
same,IC50,HFF,> 50 µM
same,IC50,Trypanosoma cruzi [1],1.2 µM
same,IC50,Leishmania donovani,49 µM
